Data published in patent US8772241B2, “Peptide and use thereof” (Ensoltek Co., Ltd., priority 2010, dated 2014).

Columns and labels:
[1] = test system: type II collagen (COL2A1); assay: Articular chondrocyte pellet, RT-PCR expression of type II collagen; details: for Relative expression of Type II collagen (%) (Mean ± SD): no treatment = 100, n=3, peptide as in Example 1 test (25 μM)
Description: (§1) In order to ensure that cellular properties of articular chondrocytes are maintained similarly to those of biological tissue, the cells were pelleted and cultured.
Cartilage tissue was prepared from hoof joints of less than 3-year old cows within one hour of being sacrificed at a regional slaughterhouse (located in Ojeong-dong, Daejeon, South Korea). For this purpose, a cartilage portion other than bone was cut using a surgical knife and collected to use. The cartilage tissue was sliced into a hexahedron of about 1 mm long at each side and placed in DMEM/F12 (Welgene) supplemented with Pronase (1 mg/ml, Roche), followed by reaction in a 5% CO2 incubator at 37° C. for 1.5 hours. The Pronase-treated tissue was washed twice with PBS(phosphate buffered saline) and then once with DMEM/F12. The washed cartilage tissue was placed in DMEM/F12 supplemented with 5% FBS (fetal bovine serum) (Invitrogen), Collagenase P (0.25 mg/ml, Roche) and DNase I (20 μg/ml, Sigma) and was allowed to react in a 5% CO2 incubator at 37° C. for 8 to 12 hours, such that the tissue was completely degraded. After the degradation was completed, the cells were collected by centrifugation at 500 xg for 15 minutes and washed twice with PBS. The cells were suspended at a cell density of 2×10^6 cells/ml in DMEM/F12 supplemented with 10% FBS and ascorbate (50 μg/ml, Sigma), and lml/tube of the cells were dispensed into 15 ml conical tubes. The cells were pelleted by centrifugation at 500 xg for 10 minutes and cultured in a 5% CO2 incubator at 37° C. for 2 days, thereby preparing a cell pellet which is solid. The pellet was transferred to a 24-well plate and cultured for 5 days. […] On Day 13, the cells were cultured in serum-free media for 24 hours.
RNA was isolated from the cultured pellet using TRIZOL (Invitrogen) and quantified by absorbance at 260 nm. cDNA was synthesized from 2.25 μg of RNA, using a random hexamer and 5× Reverse Transcriptase Master premix (Elpis Biotech, South Korea). Using 1 μl of synthesized cDNA, amplification was carried out by polymerase chain reaction (PCR) to investigate expression levels of genes. The genes to be investigated are as follows: a gene for chondrocyte-characteristic type II collagen (COL2A1) as a gene for confirming the regeneration of articular cartilage tissue; a gene for matrix metallopeptidase 13 (MMP13) which is over-expressed in damaged cartilage tissue and is involved in the degradation of the matrix, as a gene for confirming whether or not it is capable of preventing additional cartilage damage; and a gene for type X collagen (COL10A1) characteristic to hypertrophic chondrocytes involved in the ossification of articular tissue, as a gene for confirming whether or not it is over-activated and progressed to ossification.
Specifically, PCR was carried out under the following reaction conditions. The PCR reaction employed 1 μl of cDNA, 10 μl of 2× Taq polymerase master mix (Solgent), 0.5 μl of each primer set (10 pmole/μl), and 8 μl of distilled water. PCR amplification consisted of denaturation at 94° C. for 2 minutes, followed by reaction at 94° C. for 30 seconds, at 58° C. for 45 seconds and at 72° C. or 1 minute, with 32 cycles for Type II collagen, Type X collagen and MMP13, and 26 cycles for GAPDH, respectively.

[2] = test system: degenerative arthritis model; assay: Cartilage regeneration in degenerative arthritis model (anterior cruciate ligament excision); assay type: in vivo, New Zealand white rabbits; details: intra-articular cavity injection once a week for 4 weeks
Description: As experimental animals, 18 to 22-week-old male New Zealand white rabbits (n=10), weighing 3 to 3.5 kg, were purchased from Orient Bio Inc. (South Korea). The animal experiments were performed in accordance with guidelines of the Institute of Laboratory Animal Resources (ILAR) under approval of Institutional Animal Care and Use Committee of Samsung Biomedical Research Institute (SBRI, Seoul, South Korea). Degeneration of articular cartilage was induced by surgically dissecting the patellar anterior cruciate ligament of rabbits and breeding the animals in a cage for 4 weeks. The animals were divided into a control group and an experimental group.
The rabbits were put under general anesthesia by intramuscularly injecting 2.5 mg/kg of xylazine (Rompun, Bayer) and 8 mg/kg of Tiletamine/Zolazepam (Zoletil, Virbac). Then, the patellar joints of right hind legs of animals were shaved and disinfected. Patellar skins and joint capsules were excised and patellae were displaced to expose anterior cruciate ligaments. Thereafter, the ligament was excised using a razor blade (No. 11) and the joint capsule and skin were sutured. After the surgical operation was completed, the rabbits were raised in a cage for 4 weeks while allowing for routine motion. The animals were housed under the following conditions: temperature of 20 to 25° C. humidity of 10% to 50%, and Light/Dark (L/D) cycle: (light from 08:00 a.m. to 20:00 p.m.). All animals were fed once a day. At Week 4 after the surgical operation, the rabbits were divided into two groups, followed by intra-articular cavity injection. The control group was given an injection of a vehicle (5% lactose/physiological saline). For the experimental group, 200 μl of 52.5 μM peptide solution was injected to the group to which 30 μM of the peptide of Example 1 was administered, and 200 μl of 157.5 μM peptide solution was injected to the group to which 90 μM of the peptide of Example 1 was administered. The above-mentioned peptide was prepared in a solvent of 5% lactose/physiological saline prior to use. An injection was given once a week for 4 weeks. 1 and 5 weeks after the final injection (Week 8 and 12 after the first operation), the experimental animals were euthanized by vascular injection of 1 to 2 mM/kg of KCl under deep anesthesia.
The proximal portion (femoral region) of the patellar articular bone was excised. For the comparison with normal tissue, left normal articular region was also additionally excised, followed by naked-eye examination and photographing. The excised articular regions were fixed in 10% formalin, decalcified by using a decalcifier solution (CalciClear Rapid, National Diagnostics), and then made into paraffin blocks. The frontal plane of articular bone was cut into a thickness of 4 μm, thereby preparing a slide. […]

[3] = test system: matrix metallopeptidase 13 (MMP13); assay: Articular chondrocyte pellet, RT-PCR expression of MMP13; assay type: cell-based, cows; details: 25 μM peptide; normalized to GAPDH
Description: as §1
(§2) Cartilage tissue was prepared from hoof joints of less than 3-year old cows within one hour of being sacrificed at a regional slaughterhouse (located in Ojeong-dong, Daejeon, South Korea). For this purpose, a cartilage portion other than bone was cut using a surgical knife and collected to use. The cartilage tissue was sliced into a hexahedron of about 1 mm long at each side and placed in DMEM/F12 (Welgene) supplemented with Pronase (1 mg/ml, Roche), followed by reaction in a 5% CO2 incubator at 37° C. for 1.5 hours. The Pronase-treated tissue was washed twice with PBS(phosphate buffered saline) and then once with DMEM/F12. The washed cartilage tissue was placed in DMEM/F12 supplemented with 5% FBS (fetal bovine serum) (Invitrogen), Collagenase P (0.25 mg/ml, Roche) and DNase I (20 μg/ml, Sigma) and was allowed to react in a 5% CO2 incubator at 37° C. for 8 to 12 hours, such that the tissue was completely degraded. […]
(§3) RNA was isolated from the cultured pellet using TRIZOL (Invitrogen) and quantified by absorbance at 260 nm. cDNA was synthesized from 2.25 μg of RNA, using a random hexamer and 5× Reverse Transcriptase Master premix (Elpis Biotech, South Korea). […]

[4] = test system: damaged cartilage tissue explants (articular chondrocyte explants); assay: Cartilage regeneration in damaged cartilage tissue explants; assay type: cell-based, cows; details: for changes in damaged region of explant (micrograph, FIG. 1): 25 μM peptide
Description: Using a syringe (21G) whose tip was truncated and ground, damaged regions were prepared by making vertical holes to the surface uniformly at the center of the explant.
The perforated tissue explants were divided into 4 groups including a control group. […] In addition, the 1-week-incubated tissue explant and the 6-week-incubated tissue explant were fixed, respectively, in a 3.7% formaldehyde/phosphate buffered saline(3.7% formaldehyde/PBS). Then, according to the experimental method of standard histochemistry, paraffin section slides were prepared, followed by hematoxylin & eosin (H&E) staining and microscopic examination of cell shape and distribution in terms of morphology. Collagen was subjected to Masson's trichrome staining, and the shape and distribution of cells in the tissue were examined under a microscope. For comparison, the control group was treated in the same manner as in the group treated with the peptide of Example 1, except that the peptide of Example 1 was not treated.

[5] = test system: type X collagen (COL10A1); assay: Articular chondrocyte pellet, RT-PCR expression of type X collagen; assay type: cell-based, cows; details: 25 μM peptide; normalized to GAPDH
Description: as §1, §2, §3

| Substance | Relative expression of Type II collagen (%) (Mean ± SD) [1] | also measured |
| --- | --- | --- |
| Glu-Leu-Lys-Leu-Glu (ELKLE; Artificial peptide sequence prepared by coupling amino acid units one by one from the C-terminal, by Fmoc SPPS (9-flourenlymethyloxycarbonyl solid phase peptide synthesis) using an automated peptide synthesizer.) [Example 4] | 124 ± 12 |  |
| Asp-Leu-His-Leu-Asp (DLHLD; Artificial peptide sequence prepared by coupling amino acid units one by one from the C-terminal, by Fmoc SPPS (9-flourenlymethyloxycarbonyl solid phase peptide synthesis) using an automated peptide synthesizer.) [Example 7] | 190 ± 38 |  |
| Asp-Leu-Lys-Leu-Asp (DLKLD; Artificial peptide sequence prepared by coupling amino acid units one by one from the C-terminal, by Fmoc SPPS (9-flourenlymethyloxycarbonyl solid phase peptide synthesis) using an automated peptide synthesizer.) [Example 9] | 147 ± 41 |  |
| Glu-Leu-His-Leu-Glu (ELHLE; Artificial peptide sequence prepared by coupling amino acid units one by one from the C-terminal, by Fmoc SPPS (9-flourenlymethyloxycarbonyl solid phase peptide synthesis) using an automated peptide synthesizer.) [Example 2] | 163 ± 19 |  |
| Glu-Leu-Arg-Leu-Asp (ELRLD; Artificial peptide sequence prepared by coupling amino acid units one by one from the C-terminal, by Fmoc SPPS (9-flourenlymethyloxycarbonyl solid phase peptide synthesis) using an automated peptide synthesizer.) [Example 5] | 149 ± 27 |  |
| Asp-Leu-Lys-Leu-Glu (DLKLE; Artificial peptide sequence prepared by coupling amino acid units one by one from the C-terminal, by Fmoc SPPS (9-flourenlymethyloxycarbonyl solid phase peptide synthesis) using an automated peptide synthesizer.) [Example 10] | 166 ± 26 |  |
| Glu-Leu-His-Leu-Asp (ELHLD; Artificial peptide sequence prepared by coupling amino acid units one by one from the C-terminal, by Fmoc SPPS (9-flourenlymethyloxycarbonyl solid phase peptide synthesis) using an automated peptide synthesizer.) [Example 1] | 155 ± 12 | proteoglycan in the cartilage matrix, Safranin O staining (FIG. 10) ([2]; 30 μM and 90 μM): increased synthesis of proteoglycan in a dose-dependent manner; articular cartilage tissue observed by naked eyes (FIG. 8) ([2]; 30 μM, 90 μM): smooth surface and gloss close to the normal state; H&E staining pattern of cartilage tissue (FIG. 9) [2]: staining pattern similar to that of the normal group; cell size in H&E staining (FIG. 9) [2]: increased cell size; decrease in the expression of MMP13, as compared to the control group [3]: 10%; damaged region of explant, hematoxylin & eosin staining (FIG. 4) ([4]; 6-week culture, 25 μM peptide and/or 2 ng/ml TGFβ1): the damaged region was narrowed; changes in damaged region of explant (micrograph, FIG. 1) ([4]; after 2 weeks): gradually decreased; changes in damaged region of explant (micrograph, FIG. 1) ([4]; after 4 weeks, with or without 2 ng/ml TGFβ1): cells began to adhere around the damaged region; changes in damaged region of explant (micrograph, FIG. 1) ([4]; after 6 weeks, with or without 2 ng/ml TGFβ1): remarkably reduced; decrease in the expression of type X collagen (COL10A1), as compared to the control group [5]: 69%; increase in the expression of type II collagen, as compared to the control group ([1]; 25 μM peptide, normalized to GAPDH): 55% |
| Glu-Leu-Lys-Leu-Asp (ELKLD; Artificial peptide sequence prepared by coupling amino acid units one by one from the C-terminal, by Fmoc SPPS (9-flourenlymethyloxycarbonyl solid phase peptide synthesis) using an automated peptide synthesizer.) [Example 3] | 161 ± 29 |  |
| Glu-Leu-Arg-Leu-Glu [Example 6] | 158 ± 38 |  |
| Asp-Leu-His-Leu-Glu (DLHLE; Artificial peptide sequence prepared by coupling amino acid units one by one from the C-terminal, by Fmoc SPPS (9-flourenlymethyloxycarbonyl solid phase peptide synthesis) using an automated peptide synthesizer.) [Example 8] | 115 ± 42 |  |
| Asp-Leu-Arg-Leu-Glu (DLRLE; Artificial peptide sequence prepared by coupling amino acid units one by one from the C-terminal, by Fmoc SPPS (9-flourenlymethyloxycarbonyl solid phase peptide synthesis) using an automated peptide synthesizer.) [Example 12] | 159 ± 28 |  |
| Asp-Leu-Arg-Leu-Asp (DLRLD; Artificial peptide sequence prepared by coupling amino acid units one by one from the C-terminal, by Fmoc SPPS (9-flourenlymethyloxycarbonyl solid phase peptide synthesis) using an automated peptide synthesizer.) [Example 11] | 157 ± 34 |  |
